Results reported in publication PMC11968843, “Sulphostin-inspired N-phosphonopiperidones as selective covalent DPP8 and DPP9 inhibitors” (Nature Communications, 2025).
“And” between values parts separate entries of the source, which are not always exact repeats. Equal entries are not always repeated.

Columns and labels:
Test in all cases: Competitive ABPP / direct target identification with alkyne probe 9 in HEK293 cell lysates
Type in all cases: binding, H. sapiens
[1] = target: T1, HEK293 cell lysates (proteome-wide targets of probe 9) (Homo sapiens, UniProt P11498); conditions: protein PC
T1 construct: endogenous in cells; host or cells: HEK293 cell lysate

[2] = target: T2, HEK293 cell lysates (proteome-wide targets of probe 9) (Homo sapiens, UniProt P00558); conditions: protein PGK1
T2 construct: endogenous in cells; host or cells: HEK293 cell lysate

[3] = target: T3, HEK293 cell lysates (proteome-wide targets of probe 9) (Homo sapiens, UniProt Q14974); conditions: protein KPNB1
T3 construct: endogenous in cells; host or cells: HEK293 cell lysate

[4] = target: T4, HEK293 cell lysates (proteome-wide targets of probe 9) (Homo sapiens, UniProt Q8NC51); conditions: protein SERBP1
T4 construct: endogenous in cells; host or cells: HEK293 cell lysate

[5] = target: T5, HEK293 cell lysates (proteome-wide targets of probe 9) (Homo sapiens, UniProt P19338); conditions: protein NCL
T5 construct: endogenous in cells; host or cells: HEK293 cell lysate

[6] = target: T6, HEK293 cell lysates (proteome-wide targets of probe 9) (Homo sapiens, UniProt P62258); conditions: protein YWHAE
T6 construct: endogenous in cells; host or cells: HEK293 cell lysate

[7] = target: T7, HEK293 cell lysates (proteome-wide targets of probe 9) (Homo sapiens, UniProt P14923); conditions: protein JUP
T7 construct: endogenous in cells; host or cells: HEK293 cell lysate

[8] = target: T8, HEK293 cell lysates (proteome-wide targets of probe 9) (Homo sapiens, UniProt P52292); conditions: protein KPNA2
T8 construct: endogenous in cells; host or cells: HEK293 cell lysate

[9] = target: T9, HEK293 cell lysates (proteome-wide targets of probe 9) (Homo sapiens, UniProt P68363); conditions: protein TUBA1B
T9 construct: endogenous in cells; host or cells: HEK293 cell lysate

[10] = target: T10, HEK293 cell lysates (proteome-wide targets of probe 9) (Homo sapiens, UniProt P36578); conditions: protein RPL4
T10 construct: endogenous in cells; host or cells: HEK293 cell lysate

[11] = target: T11, HEK293 cell lysates (proteome-wide targets of probe 9) (Homo sapiens, UniProt P12277); conditions: protein CKB
T11 construct: endogenous in cells; host or cells: HEK293 cell lysate

[12] = target: T12, HEK293 cell lysates (proteome-wide targets of probe 9) (Homo sapiens, UniProt O15372); conditions: protein EIF3H
T12 construct: endogenous in cells; host or cells: HEK293 cell lysate

[13] = target: T13, HEK293 cell lysates (proteome-wide targets of probe 9) (Homo sapiens, UniProt P30041); conditions: protein PRDX6
T13 construct: endogenous in cells; host or cells: HEK293 cell lysate

[14] = target: T14, HEK293 cell lysates (proteome-wide targets of probe 9) (Homo sapiens, UniProt P40926); conditions: protein MDH2
T14 construct: endogenous in cells; host or cells: HEK293 cell lysate

[15] = target: T15, HEK293 cell lysates (proteome-wide targets of probe 9) (Homo sapiens, UniProt Q6V1X1)
T15 construct: endogenous in cells; host or cells: HEK293 cell lysate

[16] = target: T16, HEK293 cell lysates (proteome-wide targets of probe 9) (Homo sapiens, UniProt Q15366); conditions: protein PCBP2
T16 construct: endogenous in cells; host or cells: HEK293 cell lysate

[17] = target: T17, HEK293 cell lysates (proteome-wide targets of probe 9) (Homo sapiens, UniProt Q14103); conditions: protein HNRNPD
T17 construct: endogenous in cells; host or cells: HEK293 cell lysate

[18] = target: T18, HEK293 cell lysates (proteome-wide targets of probe 9) (Homo sapiens, UniProt O60506); conditions: protein SYNCRIP
T18 construct: endogenous in cells; host or cells: HEK293 cell lysate

[19] = target: T19, HEK293 cell lysates (proteome-wide targets of probe 9) (Homo sapiens, UniProt Q02878); conditions: protein RPL6
T19 construct: endogenous in cells; host or cells: HEK293 cell lysate

[20] = target: T20, HEK293 cell lysates (proteome-wide targets of probe 9) (Homo sapiens, UniProt P62826); conditions: protein RAN
T20 construct: endogenous in cells; host or cells: HEK293 cell lysate

[21] = target: T21, HEK293 cell lysates (proteome-wide targets of probe 9) (Homo sapiens, UniProt P50914); conditions: protein RPL14
T21 construct: endogenous in cells; host or cells: HEK293 cell lysate

[22] = target: T22, HEK293 cell lysates (proteome-wide targets of probe 9) (Homo sapiens, UniProt P62805); conditions: protein HIST1H4A
T22 construct: endogenous in cells; host or cells: HEK293 cell lysate

[23] = target: T23, HEK293 cell lysates (proteome-wide targets of probe 9) (Homo sapiens, UniProt P08865); conditions: protein RPSA
T23 construct: endogenous in cells; host or cells: HEK293 cell lysate

[24] = target: T24, HEK293 cell lysates (proteome-wide targets of probe 9) (Homo sapiens, UniProt P37802); conditions: protein TAGLN2
T24 construct: endogenous in cells; host or cells: HEK293 cell lysate

[25] = target: T25, HEK293 cell lysates (proteome-wide targets of probe 9) (Homo sapiens, UniProt P29401); conditions: protein TKT
T25 construct: endogenous in cells; host or cells: HEK293 cell lysate

[26] = target: T26, HEK293 cell lysates (proteome-wide targets of probe 9) (Homo sapiens, UniProt Q99832); conditions: protein CCT7
T26 construct: endogenous in cells; host or cells: HEK293 cell lysate

[27] = target: T27, HEK293 cell lysates (proteome-wide targets of probe 9) (Homo sapiens, UniProt P55060); conditions: protein CSE1L
T27 construct: endogenous in cells; host or cells: HEK293 cell lysate

[28] = target: T28, HEK293 cell lysates (proteome-wide targets of probe 9) (Homo sapiens, UniProt O43175); conditions: protein PHGDH
T28 construct: endogenous in cells; host or cells: HEK293 cell lysate

[29] = target: T29, HEK293 cell lysates (proteome-wide targets of probe 9) (Homo sapiens, UniProt Q01469); conditions: protein FABP5
T29 construct: endogenous in cells; host or cells: HEK293 cell lysate

[30] = target: T30, HEK293 cell lysates (proteome-wide targets of probe 9) (Homo sapiens, UniProt Q00839); conditions: protein HNRNPU
T30 construct: endogenous in cells; host or cells: HEK293 cell lysate

[31] = target: T31, HEK293 cell lysates (proteome-wide targets of probe 9) (Homo sapiens, UniProt Q86TI2); conditions: protein DPP9 (Dipeptidyl peptidase 9)
T31 construct: endogenous in cells; host or cells: HEK293 cell lysate

[32] = protein DPP8 (Dipeptidyl peptidase 8)

T15 sequence (Q6V1X1 whole entry): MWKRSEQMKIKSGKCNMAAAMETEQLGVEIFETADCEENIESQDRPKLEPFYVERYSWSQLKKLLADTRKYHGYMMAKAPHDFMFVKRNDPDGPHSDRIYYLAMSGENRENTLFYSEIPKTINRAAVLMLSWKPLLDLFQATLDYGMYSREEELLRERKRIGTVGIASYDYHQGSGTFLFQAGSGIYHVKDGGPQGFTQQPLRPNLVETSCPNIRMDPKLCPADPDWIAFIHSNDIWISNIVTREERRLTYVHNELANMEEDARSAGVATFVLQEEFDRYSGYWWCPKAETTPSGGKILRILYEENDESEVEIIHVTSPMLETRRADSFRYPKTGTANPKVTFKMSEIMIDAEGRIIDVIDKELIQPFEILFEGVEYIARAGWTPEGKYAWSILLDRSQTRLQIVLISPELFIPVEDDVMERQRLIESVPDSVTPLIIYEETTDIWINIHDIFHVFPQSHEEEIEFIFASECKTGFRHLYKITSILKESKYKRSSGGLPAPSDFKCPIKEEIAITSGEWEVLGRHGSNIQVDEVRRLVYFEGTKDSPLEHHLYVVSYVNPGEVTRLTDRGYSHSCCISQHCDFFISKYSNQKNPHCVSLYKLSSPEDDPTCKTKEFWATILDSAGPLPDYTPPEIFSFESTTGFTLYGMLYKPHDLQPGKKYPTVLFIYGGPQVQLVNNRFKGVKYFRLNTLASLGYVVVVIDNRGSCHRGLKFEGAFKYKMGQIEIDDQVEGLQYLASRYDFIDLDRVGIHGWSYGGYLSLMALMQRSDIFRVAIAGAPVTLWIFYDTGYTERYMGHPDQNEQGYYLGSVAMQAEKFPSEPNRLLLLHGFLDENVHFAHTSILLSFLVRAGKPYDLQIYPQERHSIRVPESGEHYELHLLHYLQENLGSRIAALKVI
T1 sequence (P11498 21-1178): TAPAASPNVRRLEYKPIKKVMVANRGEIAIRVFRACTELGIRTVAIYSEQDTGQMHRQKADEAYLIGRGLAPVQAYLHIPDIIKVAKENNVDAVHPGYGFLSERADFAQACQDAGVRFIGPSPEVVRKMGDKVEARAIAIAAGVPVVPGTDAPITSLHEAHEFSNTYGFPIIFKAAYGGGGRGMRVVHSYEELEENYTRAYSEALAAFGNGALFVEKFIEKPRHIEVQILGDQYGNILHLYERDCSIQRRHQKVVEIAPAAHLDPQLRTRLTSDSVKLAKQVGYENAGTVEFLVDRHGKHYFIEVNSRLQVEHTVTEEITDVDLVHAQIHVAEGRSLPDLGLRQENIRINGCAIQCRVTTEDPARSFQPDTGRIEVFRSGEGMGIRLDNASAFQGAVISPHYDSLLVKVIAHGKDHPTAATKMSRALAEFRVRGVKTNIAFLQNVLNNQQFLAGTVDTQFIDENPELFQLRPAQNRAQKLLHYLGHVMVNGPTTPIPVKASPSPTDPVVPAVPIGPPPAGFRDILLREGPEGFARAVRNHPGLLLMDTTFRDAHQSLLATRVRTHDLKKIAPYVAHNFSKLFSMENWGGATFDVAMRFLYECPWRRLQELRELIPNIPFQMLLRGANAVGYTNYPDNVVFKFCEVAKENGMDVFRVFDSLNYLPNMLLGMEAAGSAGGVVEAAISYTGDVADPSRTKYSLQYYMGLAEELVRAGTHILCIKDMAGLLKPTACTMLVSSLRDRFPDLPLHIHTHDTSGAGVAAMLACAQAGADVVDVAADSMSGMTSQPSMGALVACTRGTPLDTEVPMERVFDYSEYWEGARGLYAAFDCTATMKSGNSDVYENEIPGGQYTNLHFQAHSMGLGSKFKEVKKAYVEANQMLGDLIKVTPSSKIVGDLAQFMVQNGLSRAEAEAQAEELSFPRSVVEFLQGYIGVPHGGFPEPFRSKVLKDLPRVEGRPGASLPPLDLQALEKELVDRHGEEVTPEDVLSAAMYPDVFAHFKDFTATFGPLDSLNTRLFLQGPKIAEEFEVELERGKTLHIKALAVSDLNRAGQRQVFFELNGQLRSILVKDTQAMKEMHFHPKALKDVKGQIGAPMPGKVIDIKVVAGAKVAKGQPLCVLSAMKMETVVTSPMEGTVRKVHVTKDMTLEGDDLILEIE
T12 sequence (O15372 whole entry): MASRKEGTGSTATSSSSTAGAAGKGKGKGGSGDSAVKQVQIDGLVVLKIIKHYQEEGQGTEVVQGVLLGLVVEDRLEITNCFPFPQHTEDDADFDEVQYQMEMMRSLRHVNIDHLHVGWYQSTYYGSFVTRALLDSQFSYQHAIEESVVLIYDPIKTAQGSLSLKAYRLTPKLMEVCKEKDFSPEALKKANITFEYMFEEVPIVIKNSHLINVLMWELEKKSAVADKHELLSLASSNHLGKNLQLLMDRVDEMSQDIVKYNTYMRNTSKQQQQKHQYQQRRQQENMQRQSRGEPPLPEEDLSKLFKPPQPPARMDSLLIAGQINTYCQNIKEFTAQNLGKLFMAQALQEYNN
T31 sequence (Q86TI2 whole entry): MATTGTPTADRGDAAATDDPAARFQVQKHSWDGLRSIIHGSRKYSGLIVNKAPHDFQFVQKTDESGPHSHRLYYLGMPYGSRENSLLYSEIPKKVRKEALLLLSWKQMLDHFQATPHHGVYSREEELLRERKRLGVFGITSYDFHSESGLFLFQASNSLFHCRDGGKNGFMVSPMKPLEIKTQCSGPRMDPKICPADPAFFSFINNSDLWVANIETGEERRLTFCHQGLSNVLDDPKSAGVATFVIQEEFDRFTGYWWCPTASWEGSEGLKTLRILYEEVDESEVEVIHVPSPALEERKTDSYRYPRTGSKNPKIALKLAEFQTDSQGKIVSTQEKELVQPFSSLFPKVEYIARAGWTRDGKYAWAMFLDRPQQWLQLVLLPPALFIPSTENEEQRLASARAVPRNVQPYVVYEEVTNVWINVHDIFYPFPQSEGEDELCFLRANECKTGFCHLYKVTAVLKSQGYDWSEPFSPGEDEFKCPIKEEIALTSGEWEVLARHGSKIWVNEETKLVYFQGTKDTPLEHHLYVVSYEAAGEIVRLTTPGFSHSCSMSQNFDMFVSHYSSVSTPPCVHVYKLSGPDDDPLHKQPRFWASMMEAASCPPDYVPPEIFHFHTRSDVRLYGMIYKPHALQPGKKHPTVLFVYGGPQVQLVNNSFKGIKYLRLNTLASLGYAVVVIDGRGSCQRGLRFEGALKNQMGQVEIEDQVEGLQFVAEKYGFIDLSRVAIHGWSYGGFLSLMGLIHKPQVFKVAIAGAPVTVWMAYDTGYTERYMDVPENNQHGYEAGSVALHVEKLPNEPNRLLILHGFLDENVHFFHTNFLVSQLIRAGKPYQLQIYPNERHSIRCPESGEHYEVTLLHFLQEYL
T3 sequence (Q14974 whole entry): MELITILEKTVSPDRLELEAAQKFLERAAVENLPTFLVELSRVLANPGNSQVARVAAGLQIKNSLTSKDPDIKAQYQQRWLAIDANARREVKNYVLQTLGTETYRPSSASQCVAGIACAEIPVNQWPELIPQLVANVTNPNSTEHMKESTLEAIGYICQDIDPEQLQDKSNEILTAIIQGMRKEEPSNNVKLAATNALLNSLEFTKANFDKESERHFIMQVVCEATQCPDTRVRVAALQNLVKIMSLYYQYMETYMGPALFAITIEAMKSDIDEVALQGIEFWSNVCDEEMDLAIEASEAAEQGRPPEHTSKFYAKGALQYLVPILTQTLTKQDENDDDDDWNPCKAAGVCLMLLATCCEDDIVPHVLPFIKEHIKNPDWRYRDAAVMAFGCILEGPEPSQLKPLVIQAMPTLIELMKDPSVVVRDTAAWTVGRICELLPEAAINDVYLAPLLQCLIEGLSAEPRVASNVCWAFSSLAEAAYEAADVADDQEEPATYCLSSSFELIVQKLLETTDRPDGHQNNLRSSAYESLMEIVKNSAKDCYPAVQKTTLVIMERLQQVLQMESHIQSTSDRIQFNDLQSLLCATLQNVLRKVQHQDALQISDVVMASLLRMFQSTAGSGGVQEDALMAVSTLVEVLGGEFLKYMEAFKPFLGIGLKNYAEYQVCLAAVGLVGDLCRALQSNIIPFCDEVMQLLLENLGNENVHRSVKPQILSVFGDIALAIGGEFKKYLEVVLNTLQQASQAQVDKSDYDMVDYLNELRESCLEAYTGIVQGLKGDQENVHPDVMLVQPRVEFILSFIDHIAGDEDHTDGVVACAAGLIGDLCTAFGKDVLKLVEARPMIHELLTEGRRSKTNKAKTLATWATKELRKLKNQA
T26 sequence (Q99832 whole entry): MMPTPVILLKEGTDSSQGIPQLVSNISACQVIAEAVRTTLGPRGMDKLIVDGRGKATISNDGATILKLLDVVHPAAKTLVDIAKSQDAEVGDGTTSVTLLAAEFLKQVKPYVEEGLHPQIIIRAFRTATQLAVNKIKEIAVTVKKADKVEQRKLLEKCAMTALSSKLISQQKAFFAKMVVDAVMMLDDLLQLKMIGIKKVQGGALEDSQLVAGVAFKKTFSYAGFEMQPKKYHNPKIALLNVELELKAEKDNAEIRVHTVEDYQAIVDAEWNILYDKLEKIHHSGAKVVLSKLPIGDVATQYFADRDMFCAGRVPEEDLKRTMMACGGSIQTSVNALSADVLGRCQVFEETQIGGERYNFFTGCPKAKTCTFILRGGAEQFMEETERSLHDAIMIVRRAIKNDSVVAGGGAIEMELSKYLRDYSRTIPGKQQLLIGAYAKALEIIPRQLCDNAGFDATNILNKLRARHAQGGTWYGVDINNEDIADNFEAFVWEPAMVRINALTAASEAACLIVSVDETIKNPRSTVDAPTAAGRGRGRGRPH
T17 sequence (Q14103 whole entry): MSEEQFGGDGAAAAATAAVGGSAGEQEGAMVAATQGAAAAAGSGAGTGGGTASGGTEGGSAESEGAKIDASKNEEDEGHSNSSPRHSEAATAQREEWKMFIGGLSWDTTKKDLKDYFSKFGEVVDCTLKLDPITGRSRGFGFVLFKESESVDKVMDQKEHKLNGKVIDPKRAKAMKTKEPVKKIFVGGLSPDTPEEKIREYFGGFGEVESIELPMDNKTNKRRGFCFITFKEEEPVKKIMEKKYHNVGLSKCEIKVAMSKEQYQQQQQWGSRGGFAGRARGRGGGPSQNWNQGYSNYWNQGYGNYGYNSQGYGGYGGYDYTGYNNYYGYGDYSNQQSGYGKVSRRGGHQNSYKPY

CCCCCc1ccc(SCCP(=O)(OCC)N2CCC[C@H](N)C2=O)cc1.O=C(O)C(F)(F)F (stereo partly shown) [Compound 16]
Log2-fold change (16/9) [1]: 0.1121
Log2-fold change (16/9) [2]: 0.07234
Log2-fold change (16/9) [3]: -1.716
Log2-fold change (16/9) [4]: -1.208
Log2-fold change (16/9) [5]: -1.045
Log2-fold change (16/9) [6]: 0.3661
Log2-fold change (16/9) [7]: -0.03524
Log2-fold change (16/9) [8]: -0.6819
Log2-fold change (16/9) [9]: -1.967
Log2-fold change (16/9) [10]: 0.07056
Log2-fold change (16/9) [11]: -0.7041
Log2-fold change (16/9) [12]: -0.06894
Log2-fold change (16/9) [13]: 0.07848
Log2-fold change (16/9) [14]: -2.217
DPP8 identification after pre-incubation with competitor ([15]; labeled with 9, pre-incubated with competitor): peptides of DPP8 were identified
Log2-fold change (16/9) [15, 32]: -1.618
Log2-fold change (16/9) [16]: -0.4376
Log2-fold change (16/9) [17]: -0.4231
Log2-fold change (16/9) [18]: -1.04
Log2-fold change (16/9) [19]: 0.35
Log2-fold change (16/9) [20]: -1.91
Log2-fold change (16/9) [21]: -1.54
Log2-fold change (16/9) [22]: 0.1177
Log2-fold change (16/9) [23]: -2.215
Log2-fold change (16/9) [24]: -0.3112
Log2-fold change (16/9) [25]: 1.379
Log2-fold change (16/9) [26]: -1.548
Log2-fold change (16/9) [27]: 0.04384
Log2-fold change (16/9) [28]: -0.3162
Log2-fold change (16/9) [29]: 0.6319
Log2-fold change (16/9) [30]: -1.015
Log2-fold change (16/9) [31]: -5.229

C#CCCCP(=O)(OCC)N1CCCC(N)C1=O.O=C(O)C(F)(F)F (mixture of isomers) [Compound 9]
Log2-fold change (9/DMSO) [1]: -0.6769
Log2-fold change (9/DMSO) [2]: -0.05307
Log2-fold change (9/DMSO) [3]: 1.065
Log2-fold change (9/DMSO) [4]: -0.5195
Log2-fold change (9/DMSO) [5]: 1.258
Log2-fold change (9/DMSO) [6]: 0.2377
Log2-fold change (9/DMSO) [7]: 0.133
Log2-fold change (9/DMSO) [8]: 0.6086
Log2-fold change (9/DMSO) [9]: 0.8793
Log2-fold change (9/DMSO) [10]: -0.3595
Log2-fold change (9/DMSO) [11]: 0.9157
Log2-fold change (9/DMSO) [12]: 0.7356
Log2-fold change (9/DMSO) [13]: 0.7412
Log2-fold change (9/DMSO) [14]: 0.889
Initial LFQ intensity of DPP8 (log2-transformed) ([15]; labeled with 9, single replicates): 21.9345 and 21.2153 and 19.9933
Log2-fold change (9/DMSO) [15, 32]: 1.124
Log2-fold change (9/DMSO) [16]: 1.083
Log2-fold change (9/DMSO) [17]: 1.662
Log2-fold change (9/DMSO) [18]: 0.3304
Log2-fold change (9/DMSO) [19]: 0.5143
Log2-fold change (9/DMSO) [20]: 0.5658
Log2-fold change (9/DMSO) [21]: 0.6133
Log2-fold change (9/DMSO) [22]: -0.9831
Log2-fold change (9/DMSO) [23]: 1.5735
Log2-fold change (9/DMSO) [24]: 0.4985
Log2-fold change (9/DMSO) [25]: -1.0711
Log2-fold change (9/DMSO) [26]: -0.08905
Log2-fold change (9/DMSO) [27]: 0.5768
Log2-fold change (9/DMSO) [28]: 0.8847
Log2-fold change (9/DMSO) [29]: -0.287
Log2-fold change (9/DMSO) [30]: -0.419
Log2-fold change (9/DMSO) [31]: 5.502
